We go through three compounds from paper PMC2652249 (Biochemistry, 2008).

“And” between values parts separate entries of the source, which are not always exact repeats. Equal entries are not always repeated. “Also recorded” adds a separate entry of the source. Where two headings read alike, the source gives them in different places.

Experiment [1] addresses T1, DNA polymerase X (Pol X) (African swine fever virus, UniProt P42494). Description: biochemical. It counts as biochemical.
Experiment [2] deals with T1, DNA polymerase X (Pol X).
Experiment [3] concerns the target T1, DNA polymerase X (Pol X). The settings on record: cited from earlier work.

T1 sequence (P42494 whole entry, looked up): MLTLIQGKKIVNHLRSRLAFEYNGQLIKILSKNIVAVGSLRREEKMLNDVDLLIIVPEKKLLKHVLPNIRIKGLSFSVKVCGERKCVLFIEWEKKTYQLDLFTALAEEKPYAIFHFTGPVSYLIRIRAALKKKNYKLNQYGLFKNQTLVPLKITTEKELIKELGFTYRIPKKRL

Regarding `O=P(O)(O)OP(=O)(O)O` [PPi, Pyrophosphate], the “inhibition of Pol X by PPi” value at DNA polymerase X (Pol X) [1] is reported as “not inhibited noticeably; also recorded: modest inhibition”.
In general, Km refers to the concentration of substrate that gives half-maximal velocity. What is called Vmax is the top rate of the reaction or transport when substrate is in excess. With `Nc1ccn([C@H]2C[C@H](O)[C@@H](COP(=O)(O)OP(=O)(O)OP(=O)(O)O)O2)c(=O)n1` [dCTP], at DNA polymerase X (Pol X) [1], the Km is 32 µM and 45 µM; the Vmax was 0.52 ± 0.02 nmol/min and 0.49 ± 0.02 nmol/min; the “global fitting Vmax” value is 0.51 nmol/min and 0.47 nmol/min. For the same compound, the Km on DNA polymerase X (Pol X) [1] (read-out: global fitting Km) is 35 µM and 41 µM. Further, the “single-exponential rate k of fluorescence change” value on DNA polymerase X (Pol X) [2] is 1.64 s⁻¹ and 1.64 ± 0.01 s⁻¹.
As usually defined, the Ki is a dissociation constant, usually derived from enzyme kinetics or from competition with a known ligand. Take `Nc1ncnc2c1ncn2[C@H]1C[C@H](O)[C@@H](COP(=O)(O)OP(=O)(O)OP(=O)(O)O)O1` [dATP]: the “turnover rate slower than the rate of correct dG:dCTP incorporation” value on DNA polymerase X (Pol X) [3] is 430 fold. In addition, the Kd at DNA polymerase X (Pol X) [3] (read-out: KD,app) is 80 µM. Moreover, on DNA polymerase X (Pol X) [1], the “global fitting Vmax” value is given as 1.51 nmol/min and the “incorporation under the steady-state conditions” value was “no detectable incorporation”. The inhibitory constant (Ki) on DNA polymerase X (Pol X) [1] (global fitting KI) is 48 µM and 150 µM. Also, the Km on DNA polymerase X (Pol X) [1] (read-out: global fitting Km) came out at 13 µM. Further, at DNA polymerase X (Pol X) [2], the “k1 of fluorescence change (double-exponential)” value is 5.92 ± 0.21 s⁻¹ and the “k2 of fluorescence change (double-exponential)” value worked out at 1.17 ± 0.02 s⁻¹.
